According to patent US6828315B1, “1-Amino triazoloc4,3-a! quinazoline-5-ones and/or -5-thiones inhibiting phosphodiesterase IV” (Warner-Lambert LLC, priority 1999, dated 2004):

Columns and labels:
[1] = dose of 20 mg as a single intake; cited from earlier work
[2] = biological target: type 4 phosphodiesterases (PDE4); assay: Inhibition of the phosphodiesterase (PDE4), enzymatic preparation from line U937; assay type: biochemical; details: PDE4 from cytosolic preparation of human cell line U937
Method in brief: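 PDE4 came from a cytosolic preparation of human U937 cells. Enzymatic activity was measured with inhibitor at 0.1 to 100 μM. IC50 was defined as the concentration inhibiting 50% of enzyme activity.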

[3] = test system: TNFα production by human leukocytes; assay: Inhibition of TNFα production by human leukocytes stimulated by lipopolysaccharid; assay type: cell-based; details: Leukocyte; LPS-stimulated human leukocytes in 75% human serum; TNFα by ELISA after 15-18 hours
Protocol: This test aims to evaluate capacity of the compounds of the invention to inhibit TNFα (tumor necrosis-α) production by human leukocytes in the presence of high human serum concentration (75%). […] The test described here is based on the use of human leukocytes cultivated in 75% of human serum. It had been previously documented that these conditions simulate the observed situation when TNFα dosage is performed in human blood.
The compounds to test are dissolved into 20 mM (sometimes 6 mM) of DMSO. 100 μl of DMSO are distributed into 7 wells of a a 96 well microtiter plate (wells B to H). 150 μl of the compound solution are distributed into line A wells. 50 μl are then sequentially transferred 7 times. 20 μl of this serial dilutions of compounds are sequentially transferred twice in wells containing 180 μl of RPMI 1640 (Gibco). 50 μl of these dilutions are then transferred in wells where cells will be added.
Each test includes a series of eight wells without LPS (100% of inhibition), eight wells with LPS (0% of inhibition) and a series of Rolipram dilutions in order to enable comparison of the tests between each other and then to evaluate their variability.
A leukocyte vial is unfrozen in bain-marie (37° C.), its content is transferred into a 15 ml tube containing 10 ml of RPMI added with 5% of human serum (RPMI-5% HS). The cells are sedimented (800 g, 6 minutes, 4° C.), resuspended in 10 ml of the same medium and counted by dilution in Trypan blue solution. After centrifugating (800 g, 6 minutes, 4° C.), the cells are resuspended to 2×10^6/ml in human serum.
To 50 μl aliquots of different dilutions of compounds, 100 μl of cells are added. The plates are then incubated 30 minutes at 37° C., then 50 μl of solution 4 μg/ml of LPS prepared in human serum are added. The plates are incubated for the night at 37° C.
After incubation for 15-18 hours, 90 μl of growth supernatant are taken and transferred into rounded-bottom microtiter wells. The TNFα presence is then evaluated by ELISA (Pharmingen) by using 50 μl of supernatant. The protocol described by the manufacturer is strictly applied.

[4] = test system: TNFα production in plasma; assay: In vivo TNFα model in Wistar rat; details: po, 1.5 h, 10 mg/kg p.o. 30 min before LPS i.p., plasma TNFα 90 min after LPS, male Wistar rats, read-out: % Inhibition to 10 mg/kg
Text: The TFNα is a cytokin playing a central role in inflammation mechanisms. Its production may be induced by injection of lipopolysaccharid (LPS). It has been shown that the intracellular AMPc increase, produced in particular by PDE4 inhibitors, decreases the TNFα production in in vitro and in vivo models. Therefore it matters here to quantify in vivo anti-inflammatory potential of the compounds of the invention, administrated by oral route (p.o.) by measuring inhibition of TNFα production in plasma in rat, the latter having received a intraperitoneal injection (i.p.) of lipolysaccharid (LPS). The treatment by the compounds of the invention or the carrier is administrated by oral route in male Wistar rats, 30 min. before LPS injection. The rats are sacrificed 90 min. after LPS stimulation, the blood is harvested on EDTA and TNFα concentration is measured in each plasma sample.

SMILES | IC50 [2] | IC50 [3] | melting point | adverse events [1] | change in vivo at 10 mg/kg [4]
COc1ccc([C@]2(C#N)CC[C@@H](C(=O)O)CC2)cc1OC1CCCC1 [Ariflo] |  |  |  | significant adverse events, of the nausea and vomiting type | 
Cc1ccc2c(c1)c(=O)n(Cc1ccc(C#N)cc1)c1nnc(N(C)C)n21 [Compound 101, 4-(1-Dimethylamino-7-methyl-5-oxo-5H-[1,2,4]triazolo[4,3-a]quinazolin-4-ylmethyl)-benzonitrile] |  | 8.6 µM | 201 °C |  | -80%
Cc1ccc2c(c1)c(=O)n(C/C=C/c1ccccc1)c1nnc(N(C)C)n21 [Compound 103, 1-Dimethylamino-7-methyl-4-((E)-3-phenyl-allyl)-4H-[1,2,4]triazolo[4,3-a]quinazolin-5-one] | 0.039 µM | 10.7 µM | 171 °C |  | 
Cc1ccc2c(c1)c(=O)n(CC=Cc1cccnc1)c1nnc(N(C)C)n21 [Compound 104, 1-Dimethylamino-7-methyl-4-(3-pyridin-3-yl-allyl)-4H-[1,2,4]triazolo[4,3-a]quinazolin-5-one] | 0.077 µM | 8.1 µM | 155 °C |  | -94%

Now from value to compound, other results behind:

IC50 [2] | IC50 [3] | melting point | SMILES | adverse events [1] | change in vivo at 10 mg/kg [4]
0.079 µM | 3.4 µM |  | CN(C)c1nnc2n(C/C=C/c3cccnc3)c(=O)c3cc(Br)ccc3n12 [Compound 3, 7-Bromo-1-dimethylamino-4-((E)-3-pyridin-3-yl-allyl)-4H-[1,2,4]triazolo[4,3-a]quinazolin-5-one] |  | -98%
0.14 µM | 5.2 µM | 207 °C | CN(C)c1nnc2n(Cc3ccc(C#N)cc3)c(=O)c3cc(Br)ccc3n12 [Compound 79, 4-(7-Bromo-1-dimethylamino-5-oxo-5H-[1,2,4]triazolo[4,3-a]quinazolin-4-ylmethyl)-benzonitrile] |  | -72%
0.041 µM | 6.8 µM | 171 °C | CN(C)c1nnc2n(CC=Cc3ccccc3)c(=O)c3cc(Br)ccc3n12 [Compound 85, 7-Bromo-1-dimethylamino-4-(3-phenyl-allyl)-4H-[1,2,4]triazolo[4,3-a]quinazolin-5-one] |  | -77%
 | 4.3 µM | 166 °C | Cc1ccc2c(c1)c(=O)n(Cc1ccc(C#N)cc1)c1nnc(N3CCCC3)n21 [Compound 93, 4-(7-Methyl-5-oxo-1-pyrrolidin-1-yl-5H-[1,2,4]triazolo[4,3-a]quinazolin-4-ylmethyl)-benzonitrile] |  | -67%
0.029 µM | 6.3 µM | 184 °C | COc1ccc(Cn2c(=O)c3cc(C)ccc3n3c(N4CCCC4)nnc23)cc1OC [Compound 94, 4-(3,4-Dimethoxy-benzyl)-7-methyl-1-pyrrolidin-1-yl-4H-[1,2,4]triazolo[4,3-a]quinazolin-5-one] |  | -87%
